US20150313225A1
Like-named read-outs stand apart in the source and are kept apart here.

Assays:
Type in all cases: cell-based
[1] = tested on: Alternaria solani; assay: Microtest against early blight caused by Alternaria solani (Alteso); settings: solo product
[2] = tested on: Leptosphaeria nodorum; assay: Microtest against wheat leaf spots caused by Leptosphaeria nodorum (Leptno); settings: solo product
[3] = tested on: Botrytis cinerea; assay: Microtiterplate test against the grey mold Botrytis cinerea (Botrci); settings: solo product
[4] = tested on: Pyricularia oryzae; assay: microbe, parasite or virus in culture; settings: for Observed efficacy: solo product
[5] = tested on: Phytophthora infestans; assay: microbe, parasite or virus in culture; settings: for Observed efficacy: solo product
[6] = tested on: Septoria tritici; assay: Microtest against leaf blotch on wheat caused by Septoria tritici (Septtr); settings: solo product; for inhibition of growth at 1.6e-05 ppm: 0.000016 ppm
[7] = Alternaria solani, 168 h, 0.004 ppm, read-out: Observed efficacy
[8] = Alternaria solani, 168 h, 0.016 ppm, read-out: Observed efficacy
[9] = Parastagonospora nodorum, 168 h, 0.00025 ppm, read-out: Observed efficacy
[10] = Botrytis cinerea, 168 h, 0.063 ppm, read-out: Observed efficacy
[11] = Botrytis cinerea, 168 h, 0.25 ppm, read-out: Observed efficacy
[12] = Pyricularia oryzae, 168 h, read-out: Observed efficacy
[13] = Phytophthora infestans, 168 h, read-out: Observed efficacy
[14] = Zymoseptoria tritici, 168 h, read-out: Observed efficacy
[15] = Zymoseptoria tritici, 168 h, 0.001 ppm, read-out: Observed efficacy
[16] = Alternaria solani, 168 h, 0.00025 ppm, read-out: Observed efficacy
[17] = Parastagonospora nodorum, 168 h, read-out: Observed efficacy
[18] = Alternaria solani, 168 h, 0.063 ppm, read-out: Observed efficacy
[19] = Botrytis cinerea, 168 h, 1 ppm, read-out: Observed efficacy
[20] = Alternaria solani, 168 h, 0.25 ppm, read-out: Observed efficacy
[21] = Parastagonospora nodorum, 168 h, 1 ppm, read-out: Observed efficacy
[22] = Botrytis cinerea, 168 h, 4 ppm, read-out: Observed efficacy
[23] = Alternaria solani, 168 h, read-out: Observed efficacy
[24] = Botrytis cinerea, 168 h, 16 ppm, read-out: Observed efficacy

CC(O)(Cn1cncn1)c1ccc(Oc2ccc(F)cc2)cc1Cl (stereo not drawn) [I-18, 2-[2-chloro-4-(4-fluorophenoxy)phenyl]-1-(1,2,4-triazol-1-yl)propan-2-ol]
inhibition of growth at 0.004 ppm [1, 7]: 0%
inhibition of growth at 0.016 ppm [1, 8]: 7%
inhibition of growth at 6.3e-05 ppm ([2]; Parastagonospora nodorum, 168 h, 0.000063 ppm, read-out: Observed efficacy): 22%
inhibition of growth at […] [2, 9]: 26%
inhibition of growth at […] [3, 10]: 13%
inhibition of growth at […] [3, 11]: 44%
inhibition of growth at 0.016 ppm [4, 12]: 1%
inhibition of growth at 1 ppm [4, 12]: 5%
inhibition of growth at 16 ppm [5, 13]: 15%
inhibition of growth at 63 ppm [5, 13]: 19%
inhibition of growth at 1.6e-05 ppm [6, 14]: 4%
inhibition of growth at 0.001 ppm [6, 15]: 4%
inhibition of growth at 6.3e-05 ppm [6, 14]: 0%

CCC(Cn1cncn1)(OC)c1ccc(Oc2ccc(Cl)cc2)cc1Cl (stereo not drawn) [I-21, 1-[2-[2-chloro-4-(4-chlorophenoxy)phenyl]-2-methoxy-butyl]-1,2,4-triazole]
inhibition of growth at […] [1, 16]: 2%
inhibition of growth at 0.004 ppm [1, 7]: 5%
inhibition of growth at […] [2, 9]: 12%
inhibition of growth at 0.001 ppm [2, 17]: 22%
inhibition of growth at […] [3, 10]: 18%
inhibition of growth at 0.016 ppm [4, 12]: 1%
inhibition of growth at 63 ppm [5, 13]: 29%
inhibition of growth at 4e-06 ppm ([6]; Zymoseptoria tritici, 168 h, 0.000004 ppm, read-out: Observed efficacy): 17%
inhibition of growth at 6.3e-05 ppm [6, 14]: 25%

CCCC(Cn1cncn1)(OC)c1ccc(Oc2ccc(Cl)cc2)cc1Cl (stereo not drawn) [I-22, 1-[2-[2-chloro-4-(4-chlorophenoxy)phenyl]-2-methoxy-pentyl]-1,2,4-triazole]
inhibition of growth at […] [1, 18]: 25%
inhibition of growth at […] ([2]; Parastagonospora nodorum, 168 h, 0.063 ppm, read-out: Observed efficacy): 25%
inhibition of growth at […] [3, 11]: 1%
inhibition of growth at 1 ppm [3, 19]: 34%
inhibition of growth at 63 ppm [5, 13]: 41%
inhibition of growth at 0.001 ppm [6, 15]: 10%

C#CCC(O)(Cn1cncn1)c1ccc(Oc2ccc(Cl)cc2)cc1Cl (stereo not drawn) [I-25, 2-[2-chloro-4-(4-chlorophenoxy)phenyl]-1-(1,2,4-triazol-1-yl)pent-4-yn-2-ol]
inhibition of growth at 4e-06 ppm ([1]; Alternaria solani, 168 h, 0.000004 ppm, read-out: Observed efficacy): 7%
inhibition of growth at 6.3e-05 ppm ([1]; Alternaria solani, 168 h, 0.000063 ppm, read-out: Observed efficacy): 1%
inhibition of growth at 4e-06 ppm ([2]; Parastagonospora nodorum, 168 h, 0.000004 ppm, read-out: Observed efficacy): 14%
inhibition of growth at 1.6e-05 ppm ([2]; Parastagonospora nodorum, 168 h, 0.000016 ppm, read-out: Observed efficacy): 22%
inhibition of growth at 0.004 ppm ([3]; Botrytis cinerea, 168 h, 0.004 ppm, read-out: Observed efficacy): 9%
inhibition of growth at 0.016 ppm ([3]; Botrytis cinerea, 168 h, 0.016 ppm, read-out: Observed efficacy): 16%
inhibition of growth at […] [3, 10]: 23%
inhibition of growth at […] [3, 11]: 49%
inhibition of growth at 16 ppm [5, 13]: 0%
inhibition of growth at 1.6e-05 ppm [6, 14]: 12%
inhibition of growth at 0.001 ppm [6, 15]: 37%
inhibition of growth at 6.3e-05 ppm [6, 14]: 12%

COCC(O)(Cn1cncn1)c1ccc(Oc2ccc(F)cc2)cc1Cl (stereo not drawn) [I-27, 2-[2-chloro-4-(4-fluorophenoxy)phenyl]-1-methoxy-3-(1,2,4-triazol-1-yl)propan-2-ol]
inhibition of growth at […] [1, 16]: 4%
inhibition of growth at 0.001 ppm ([1]; Alternaria solani, 168 h, 0.001 ppm, read-out: Observed efficacy): 0%
inhibition of growth at 0.004 ppm [1, 7]: 0%
inhibition of growth at 0.016 ppm [1, 8]: 12%
inhibition of growth at […] [2, 9]: 8%
inhibition of growth at 0.001 ppm [2, 17]: 6%
inhibition of growth at 0.004 ppm ([2]; Parastagonospora nodorum, 168 h, 0.004 ppm, read-out: Observed efficacy): 15%
inhibition of growth at 0.016 ppm ([2]; Parastagonospora nodorum, 168 h, 0.016 ppm, read-out: Observed efficacy): 24%
inhibition of growth at […] [3, 10]: 22%
inhibition of growth at 1 ppm [4, 12]: 29%
inhibition of growth at 63 ppm [5, 13]: 31%
inhibition of growth at 1.6e-05 ppm [6, 14]: 7%
inhibition of growth at 0.001 ppm [6, 15]: 9%
inhibition of growth at 6.3e-05 ppm [6, 14]: 6%

CO/C=C(/C(=O)OC)c1ccccc1Oc1cc(Oc2ccccc2C#N)ncn1 [II-3, azoxystrobin, reference compound]
Observed efficacy ([1]; 0.004 ppm): 6
Observed efficacy ([1]; 0.016 ppm): 14
Observed efficacy ([3]; 4 ppm): 14
Observed efficacy ([3]; 16 ppm): 23
Observed efficacy ([4]; 0.004 ppm): 1
Observed efficacy ([5]; 0.016 ppm): 2
Observed efficacy ([6]; 0.001 ppm): 12

N#Cc1c(Cl)c(Cl)c(Cl)c(C#N)c1Cl [II-11, chlorothalonil, reference compound]
inhibition of growth at […] [1, 18]: 4%
inhibition of growth at […] [1, 20]: 2%
inhibition of growth at 1 ppm [2, 21]: 28%
inhibition of growth at 1 ppm [3, 19]: 23%
inhibition of growth at 4 ppm [3, 22]: 41%
inhibition of growth at 0.016 ppm [5, 13]: 2%

Cc1ccc(-c2c(Cl)nc(C#N)n2S(=O)(=O)N(C)C)cc1 [II-12, cyazofamid, reference compound]
inhibition of growth at 4 ppm [1, 23]: 14%
inhibition of growth at 16 ppm ([1]; Alternaria solani, 168 h, 16 ppm, read-out: Observed efficacy): 35%
inhibition of growth at 16 ppm [3, 24]: 24%
inhibition of growth at 4 ppm [4, 12]: 9%
inhibition of growth at 0.004 ppm [5, 13]: 8%
inhibition of growth at 16 ppm ([6]; Zymoseptoria tritici, 168 h, 16 ppm, read-out: Observed efficacy): 40%

CN1COCN(Cc2cnc(Cl)s2)/C1=N\[N+](=O)[O-] [II-42c, thiamethoxam, reference compound]
inhibition of growth at […] [1, 20]: 8%
inhibition of growth at 1 ppm ([1]; Alternaria solani, 168 h, 1 ppm, read-out: Observed efficacy): 10%
inhibition of growth at 4 ppm [1, 23]: 51%
inhibition of growth at 1 ppm [2, 21]: 22%
inhibition of growth at 4 ppm ([2]; Parastagonospora nodorum, 168 h, 4 ppm, read-out: Observed efficacy): 51%
inhibition of growth at 63 ppm ([3]; Botrytis cinerea, 168 h, 63 ppm, read-out: Observed efficacy): 8%
inhibition of growth at 0.016 ppm [4, 12]: 3%
inhibition of growth at 1 ppm [4, 12]: 56%
inhibition of growth at 1 ppm [5, 13]: 1%
inhibition of growth at 4 ppm [5, 13]: 2%
inhibition of growth at 1 ppm ([6]; Zymoseptoria tritici, 168 h, 1 ppm, read-out: Observed efficacy): 57%

COC(=O)N(OC)c1ccccc1COc1ccn(-c2ccc(Cl)cc2)n1 [II-66, pyraclostrobin, reference compound]
inhibition of growth at 0.004 ppm [1, 7]: 8%
inhibition of growth at 4 ppm [3, 22]: 29%
inhibition of growth at 16 ppm [3, 24]: 66%
inhibition of growth at 0.004 ppm [4, 12]: 59%
inhibition of growth at 0.016 ppm [5, 13]: 9%
inhibition of growth at 0.001 ppm [6, 15]: 12%
inhibition of growth at 0.004 ppm ([6]; Zymoseptoria tritici, 168 h, 0.004 ppm, read-out: Observed efficacy): 37%
inhibition of growth at 6.3e-05 ppm [6, 14]: 7%

C[N+]1(C)CCCCC1.[Cl-] [Mepiquat-cl]
Observed efficacy ([1]; 16 ppm): 10
Observed efficacy ([1]; 63 ppm): 16
Observed efficacy ([2]; 63 ppm): 28
Observed efficacy ([3]; 16 ppm): 11
Observed efficacy ([4]; 1 ppm): 2
Observed efficacy ([4]; 4 ppm): 1
Observed efficacy ([4]; 16 ppm): 4
Observed efficacy ([5]; 4 ppm): 5
Observed efficacy ([6]; 63 ppm): 16

OC(Cc1ccccc1Cl)(Cn1nc[nH]c1=S)C1(Cl)CC1 (stereo not drawn) [Prothioconazol]
Observed efficacy ([1]; 1 ppm): 66
Observed efficacy ([2]; 1 ppm): 43
Observed efficacy ([3]; 1 ppm): 36
Observed efficacy ([3]; 4 ppm): 72
Observed efficacy ([4]; 1 ppm): 13
Observed efficacy ([4]; 4 ppm): 23
Observed efficacy ([5]; 1 ppm): 4
Observed efficacy ([5]; 4 ppm): 12
Observed efficacy ([5]; 16 ppm): 35
Observed efficacy ([6]; 0.016 ppm): 17
